Experimental data reported in patent publication US20050282755A1, “Compositions having antimicrobial activity and uses thereof” (priority 2004, published 2005).
≈ marks a conversion by molar mass, not a printed value. Read-outs that look alike come from different tables or passages of the source. Non-standard residues stand in square brackets, D forms with d. Residues, ends and D or L forms follow the SMILES beside them. *: point of attachment. Lauroyl = CCCCCCCCCCCC(=O)*

Legend:
Jurkat cells = type: cell-based; conditions: 16 h
Experimental: Toxicity of peptide compositions for mammalian cells was determined by using a metabolic viability assay. For this assay 4×10^5 HeLa cells were seeded per well into a microwell plate (50 microliters volume). Jurkat cells also were utilized in separate experiments. The cells were incubated for 16 hours at 37° C. under mammalian cell culture conditions. Two fold serial dilutions for each peptide were prepared and added to the cells (final volume 100 microliters) and incubated for 16 hours at 37° C. For each dilution series control wells containing cells without peptide were included. The metabolic activity and viability of the cells were determined by using a commercially available assay (CellTiter96 assay, Promega Corp.). According to manufacturer's protocol 20 microliters of CellTiter reagent was added to each well and incubated at 37° C. for 1-4 hours. The CellTiter assay is a commercial version of the MTT assay, which measures the conversion of a tetrazolium […] into a colored formazan salt in metabolically active cells. The formation of the formazan product can be measured at 470 nm and is generally accepted as a measure of cellular viability. The cells were incubated at 37° C. and monitored for color development. The conversion of CellTiter reagent was measured at 470 nm using a Versamax plate reader (Molecular Devices). The viability of peptide treated cells is expressed as IC50 (i.e., concentration that leads to a 50% reduction of viability relative to the untreated control). Table 7A reports IC50 values for HeLa cells cultured in OptiMEM or 10% FBS when contacted with peptide compositions from Table 3, and Table 7B reports IC50 values for HeLa cells or Jurkat cells contacted with peptide compositions from Table 3.

[1] = tested on: Staphylococcus aureus ATCC 29213; assay: MIC, NCCLS M7-A6 broth microdilution, cation-adjusted Mueller Hinton broth (Table 9, no superscript); type: cell-based; conditions: ATCC 29213
Outline: (§1)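 MIC determined by microdilution in cation-adjusted Mueller Hinton broth after overnight growth at 37° C, defined as the lowest peptide level lacking turbidity.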

[2] = tested on: Escherichia coli ATCC 25922; assay: MIC, NCCLS M7-A6 broth microdilution (Table 9, no superscript); type: cell-based; conditions: ATCC 25922
Outline: as §1

[3] = tested on: Pseudomonas aeruginosa ATCC 27853; assay: as above; type: cell-based; conditions: ATCC 27853
Outline: as §1

Salmonella dublin (Lane) = assay: as above; type: cell-based
Outline: as §1

[4] = tested on: Staphylococcus epidermidis ATCC 12228; assay: as above; type: cell-based; conditions: ATCC 12228
Outline: as §1

[5] = tested on: Propionibacterium acnes ATCC 6919; type: cell-based
Outline: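 MIC by non-standard broth microdilution in reinforced Clostridial broth, log-phase P. acnes inoculum at 5×10^5 to 1×10^6 CFU/mL. Plates were held anaerobically 48–72 h at 37° C; MIC was the lowest peptide concentration with no visible turbidity relative to the no-peptide control.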

[6] = tested on: Candida albicans ATCC 18804; assay: MIC in yeasts, NCCLS M27-A2 broth microdilution, RPMI 1640 (Table 9, letter e); type: cell-based; conditions: ATCC 18804
Outline: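 Broth microdilution per NCCLS M27-A2 in RPMI 1640 with glutamine and phenol red, final inoculum 0.5×10^3–2.5×10^3 CFU/milliliter. Incubated 24 to 48 hours at 37° C; MIC is the lowest peptide concentration with no visible growth.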

HeLa cells = conditions: 16 h
IL-12 release = assay: Anti-inflammation assay: IL-12 release in PBMCs stimulated by P. acnes (IL-12p70 ELISA); type: cell-based, human; conditions: PBMCs stimulated by P. acnes, over night; read-out: IC50 value, reduction of IL-12 release
Experimental: An assay that detected reductions in IL-12 released in whole human blood cells (PBMCs) was utilized to detect reductions in inflammation elicited by peptide compositions described herein. The assay utilized the following materials and reagents: whole human blood cells; P. acnes; peptides 55, 67 and 93 from Table 3; IL-12p70 ELISA kit (eBiosciences); RPMI 1640 growth medium; PBS; and a 96-well microtiter plate. PBMCs were prepared from whole human blood cells according to standard procedures and cells were resuspended in RPMI 1640 and 10% FCS. Cells were seeded at 250,000 cells per well in a 96-well microtiter plate and incubated for 90 minutes. […] Controls included untreated cells, P. acnes alone or a peptide alone. The cells were incubated over night at 37° C., and cell supernatants were collected and stored at −80° C. for use in an IL-12 ELISA assay (eBiosciences). A 1:1 dilution of supernatant was utilized to perform the IL-12 ELISA following the protocol provided by the manufacturer.

[7] = tested on: Propionibacterium acnes ATCC 6919; assay: MIC, agar dilution method NCCLS M11-A6, Brucella agar, anaerobic (Table 9, superscript c); type: cell-based; conditions: letter c: agar dilution NCCLS M11-A6, Brucella agar, anaerobic
Outline: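 Agar dilution per NCCLS M11-A6 on Brucella agar; final inoculum 1.5×10^8 CFU/milliliter applied to plates, incubated 48-96 hours at 37° C. under anaerobic (GasPak) conditions. MIC = lowest peptide concentration with no colony growth.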

[8] = tested on: Pseudomonas aeruginosa ATCC 27853; conditions: ATCC 27853, pH 7.4

Row | Structure (SMILES) | IC50 (Jurkat cells) | MIC S. aureus [1] | MIC E. coli [2] | MIC P. aeruginosa [3] | MIC S. dublin (Salmonella dublin (Lane)) | MIC S. epidermidis [4] | MIC P. acnes [5] | MIC C. albicans [6] | IC50 (HeLa cells) | IC50 (IL-12 release) | MIC P. acnes [7] | MIC P. aeruginosa [8]
1 | CSCC[C@@H](NC(=O)[C@@H](Cc1ccccc1)NC(=O)[C@@H](CC(N)=O)NC(=O)[C@@H](CCCNC(=N)N)NC(=O)[C@@H](CO)NC(=O)[C@@H](Cc1c[nH]c2ccccc12)NC(=O)[C@@H](CC(=O)O)NC(=O)[C@@H](CCCNC(=N)N)NC(=O)[C@@H](Cc1c[nH]c2ccccc12)NC(=O)[C@@H](CCCNC(=N)N)NC(=O)[C@@H](CO)NC(=O)[C@@H](CCCNC(=N)N)NC(=O)CNC(=O)[C@H](NC(=O)[C@@H](CCCNC(=N)N)NC(=O)[C@@H](CO)NC(=O)[C@H](NC(=O)[C@@H](CCCNC(=N)N)NC(=O)[C@H](NC(C)=O)[C@H](C)O)C(C)C)[C@H](C)O)C(=O)N[C@H](CCCNC(=N)N)C(N)=O [Peptide 33, Ac-trvsrtgrsrwrdwsrnfmr-NH2] (Ac-[dT][dR][dV][dS][dR][dT]G[dR][dS][dR][dW][dR][dD][dW][dS][dR][dN][dF][dM][dR]-NH2) | 67.5 µM | >64 µg/mL | >64 µg/mL | >64 µg/mL | 64 µg/mL (≈ 24.1 µM) | 32 µg/mL (≈ 12.1 µM) | 12.5 µg·days/mL | 16e ug/mL | > 100 µM |  |  | 
2 | CCCCCCCCCCCC(=O)N[C@@H](C(=O)N[C@H](CCCNC(=N)N)C(=O)N[C@@H](C(=O)N[C@H](CO)C(=O)N[C@H](CCCNC(=N)N)C(=O)N[C@@H](C(=O)NCC(=O)N[C@H](CCCNC(=N)N)C(=O)N[C@H](CO)C(=O)N[C@H](CCCNC(=N)N)C(=O)N[C@H](Cc1c[nH]c2ccccc12)C(=O)N[C@H](CCCNC(=N)N)C(=O)N[C@H](CC(=O)O)C(=O)N[C@H](Cc1c[nH]c2ccccc12)C(=O)N[C@H](CO)C(=O)N[C@H](CCCNC(=N)N)C(=O)N[C@H](CC(N)=O)C(=O)N[C@H](Cc1ccccc1)C(=O)N[C@H](CCSC)C(=O)N[C@H](CCCNC(=N)N)C(N)=O)[C@H](C)O)C(C)C)[C@H](C)O [Peptide 76, Lauryl-trvsrtgrsrwrdwsrnfmr-NH2] (Lauroyl-[dT][dR][dV][dS][dR][dT]G[dR][dS][dR][dW][dR][dD][dW][dS][dR][dN][dF][dM][dR]-NH2) | 3.3 µM | 2 µg/mL (≈ 0.716 µM) | 4 µg/mL (≈ 1.43 µM) | 32 µg/mL (≈ 11.5 µM) | 16 µg/mL (≈ 5.73 µM) | 1 µg/mL (≈ 0.358 µM) |  | 16e ug/mL | 5.49 µM | 1.12 µM | 64c ug/mL | 
3 | CCCCCCCCCCCC(=O)N[C@H](CCCNC(=N)N)C(=O)N[C@H](CO)C(=O)N[C@H](CCCNC(=N)N)C(=O)N[C@H](Cc1c[nH]c2ccccc12)C(=O)N[C@H](CCCNC(=N)N)C(=O)N[C@H](CC(=O)O)C(=O)N[C@@H](C(=O)N[C@H](C)C(=O)N[C@H](CCCNC(=N)N)C(=O)N[C@H](CC(N)=O)C(=O)N[C@H](Cc1ccccc1)C(=O)N[C@H](CCSC)C(=O)N[C@H](CCCNC(=N)N)C(N)=O)C(C)C [Peptide 90, Lauryl-rsrwrdvarnfmr-NH2] (Lauroyl-[dR][dS][dR][dW][dR][dD][dV][dA][dR][dN][dF][dM][dR]-NH2) | 5 to 15 µM | 4 µg/mL (≈ 2.07 µM) | 4 µg/mL (≈ 2.07 µM) |  | 4 µg/mL (≈ 2.07 µM) | 4 µg/mL (≈ 2.07 µM) |  | 16e ug/mL | 5 to 15 µM |  | 8c ug/mL | 3b ug/mL
